Experiments:
Test in all cases: KINOMEscan
Conditions in all cases: read-out: Percent Control
[1] = target: ABL1(T315I)-nonphosphorylated (Homo sapiens, UniProt P00519, T315I)
Procedure: (§1) The kinase engagement assay (KINOMEscan®) was performed by DiscoverX assessing binding abilities toward a set of kinases.

[2] = target: MLK2 (Homo sapiens, UniProt Q02779)
Procedure: as §1

[3] = target: SRPK1 (Homo sapiens, UniProt Q96SB4)
Procedure: as §1

[4] = target: FLT3(R834Q) (Homo sapiens, UniProt P36888, R834Q)
Procedure: as §1

[5] = target: ERN1 (Homo sapiens, UniProt O75460)
Procedure: as §1

[6] = target: PIP5K1C (Homo sapiens, UniProt O60331)
Sequence of PIP5K1C (O60331 whole entry): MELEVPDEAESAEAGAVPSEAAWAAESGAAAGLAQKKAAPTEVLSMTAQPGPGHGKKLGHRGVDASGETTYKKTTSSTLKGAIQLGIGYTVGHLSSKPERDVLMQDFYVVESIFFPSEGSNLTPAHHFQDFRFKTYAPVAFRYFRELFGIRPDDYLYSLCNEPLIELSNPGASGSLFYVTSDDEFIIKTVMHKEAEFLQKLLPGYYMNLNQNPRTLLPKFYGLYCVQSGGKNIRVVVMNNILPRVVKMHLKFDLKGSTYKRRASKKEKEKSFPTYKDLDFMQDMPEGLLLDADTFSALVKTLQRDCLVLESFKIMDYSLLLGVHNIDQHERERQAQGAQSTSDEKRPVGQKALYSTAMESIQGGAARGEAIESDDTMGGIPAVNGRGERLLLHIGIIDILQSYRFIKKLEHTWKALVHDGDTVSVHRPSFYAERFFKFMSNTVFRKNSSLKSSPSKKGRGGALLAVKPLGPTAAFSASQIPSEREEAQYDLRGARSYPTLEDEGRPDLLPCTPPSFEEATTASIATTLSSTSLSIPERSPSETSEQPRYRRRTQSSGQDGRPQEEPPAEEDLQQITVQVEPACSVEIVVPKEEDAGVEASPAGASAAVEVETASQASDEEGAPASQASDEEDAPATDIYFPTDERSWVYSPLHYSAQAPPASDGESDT
Procedure: as §1

Sequence of MLK2 (Q02779 whole entry): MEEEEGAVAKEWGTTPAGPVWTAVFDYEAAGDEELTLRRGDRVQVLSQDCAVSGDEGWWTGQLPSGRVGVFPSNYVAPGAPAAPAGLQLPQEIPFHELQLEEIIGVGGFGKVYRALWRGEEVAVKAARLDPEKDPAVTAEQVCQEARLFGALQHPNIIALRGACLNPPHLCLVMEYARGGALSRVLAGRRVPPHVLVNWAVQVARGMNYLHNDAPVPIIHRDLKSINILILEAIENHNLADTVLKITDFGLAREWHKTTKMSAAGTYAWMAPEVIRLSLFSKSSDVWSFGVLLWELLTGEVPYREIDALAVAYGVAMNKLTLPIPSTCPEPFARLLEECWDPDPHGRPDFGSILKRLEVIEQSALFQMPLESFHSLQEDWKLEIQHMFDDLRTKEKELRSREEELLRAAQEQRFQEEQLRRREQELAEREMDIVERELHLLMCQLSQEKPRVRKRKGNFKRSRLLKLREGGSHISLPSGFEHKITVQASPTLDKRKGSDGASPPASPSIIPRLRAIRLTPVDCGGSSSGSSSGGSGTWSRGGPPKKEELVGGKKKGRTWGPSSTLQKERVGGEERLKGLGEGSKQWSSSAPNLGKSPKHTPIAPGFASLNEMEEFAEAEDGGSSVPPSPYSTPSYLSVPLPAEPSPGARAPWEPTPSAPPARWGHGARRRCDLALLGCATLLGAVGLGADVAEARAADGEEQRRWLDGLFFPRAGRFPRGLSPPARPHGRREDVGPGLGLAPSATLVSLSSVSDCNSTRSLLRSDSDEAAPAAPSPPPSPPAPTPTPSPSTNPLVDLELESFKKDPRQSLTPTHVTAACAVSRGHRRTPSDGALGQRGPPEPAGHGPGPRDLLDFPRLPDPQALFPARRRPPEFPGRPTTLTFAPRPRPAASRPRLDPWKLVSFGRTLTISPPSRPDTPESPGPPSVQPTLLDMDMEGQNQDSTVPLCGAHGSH
Sequence of SRPK1 (Q96SB4 whole entry): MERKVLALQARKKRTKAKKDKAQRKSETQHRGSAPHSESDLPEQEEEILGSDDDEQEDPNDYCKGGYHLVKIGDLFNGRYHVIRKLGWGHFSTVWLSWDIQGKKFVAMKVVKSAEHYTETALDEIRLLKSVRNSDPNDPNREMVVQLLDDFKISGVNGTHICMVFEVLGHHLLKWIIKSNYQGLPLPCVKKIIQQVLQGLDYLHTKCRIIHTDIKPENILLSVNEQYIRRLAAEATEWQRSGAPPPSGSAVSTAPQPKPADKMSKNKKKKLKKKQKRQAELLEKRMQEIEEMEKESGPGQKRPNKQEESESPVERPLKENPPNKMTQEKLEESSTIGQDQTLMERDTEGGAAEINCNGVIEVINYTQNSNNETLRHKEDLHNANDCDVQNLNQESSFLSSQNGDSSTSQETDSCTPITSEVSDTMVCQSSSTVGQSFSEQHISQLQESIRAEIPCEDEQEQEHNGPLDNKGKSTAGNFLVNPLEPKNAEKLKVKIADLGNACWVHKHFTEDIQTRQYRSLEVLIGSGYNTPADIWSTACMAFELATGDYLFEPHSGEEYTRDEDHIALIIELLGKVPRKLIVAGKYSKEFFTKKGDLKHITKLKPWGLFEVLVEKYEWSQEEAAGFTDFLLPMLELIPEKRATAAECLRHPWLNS
Sequence of ERN1 (O75460 19-977): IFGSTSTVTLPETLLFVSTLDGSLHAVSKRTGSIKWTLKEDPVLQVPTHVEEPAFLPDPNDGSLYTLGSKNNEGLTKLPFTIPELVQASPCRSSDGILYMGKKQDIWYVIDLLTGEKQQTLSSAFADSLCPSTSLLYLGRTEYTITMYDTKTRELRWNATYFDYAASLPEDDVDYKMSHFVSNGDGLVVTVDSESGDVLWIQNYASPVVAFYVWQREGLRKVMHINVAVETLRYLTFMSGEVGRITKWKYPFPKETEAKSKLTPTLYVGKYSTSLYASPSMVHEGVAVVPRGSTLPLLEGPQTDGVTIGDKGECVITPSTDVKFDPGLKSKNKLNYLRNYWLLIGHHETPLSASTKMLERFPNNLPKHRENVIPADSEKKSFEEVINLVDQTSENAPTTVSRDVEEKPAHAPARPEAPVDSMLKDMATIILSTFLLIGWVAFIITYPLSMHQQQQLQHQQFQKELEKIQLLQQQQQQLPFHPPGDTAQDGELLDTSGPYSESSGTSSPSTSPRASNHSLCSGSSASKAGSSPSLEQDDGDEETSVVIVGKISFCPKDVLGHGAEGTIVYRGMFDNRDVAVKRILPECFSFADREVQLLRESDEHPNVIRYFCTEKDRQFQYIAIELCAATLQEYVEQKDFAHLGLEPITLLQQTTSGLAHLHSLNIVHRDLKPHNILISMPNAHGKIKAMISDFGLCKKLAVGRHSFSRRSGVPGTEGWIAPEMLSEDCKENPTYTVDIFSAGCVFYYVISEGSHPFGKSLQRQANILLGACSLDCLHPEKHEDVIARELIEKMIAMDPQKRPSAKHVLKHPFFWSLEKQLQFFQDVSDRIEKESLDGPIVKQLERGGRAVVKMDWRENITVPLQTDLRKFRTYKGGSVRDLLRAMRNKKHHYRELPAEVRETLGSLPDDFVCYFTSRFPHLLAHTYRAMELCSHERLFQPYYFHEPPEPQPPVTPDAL

O=C1CCC(N2C(=O)c3cccc(NCCCCCCCCNC(=O)N4CC[C@H](NC5=Nc6cc(F)ccc6N(CC(F)F)c6ccc(Cl)cc65)C4)c3C2=O)C(=O)N1 (stereo partly drawn) [BJG-05-039, (3S)-3-((2-Chloro-5-(2,2-difluoroethyl)-8-fluoro-5H-dibenzo[b,e][1,4]diazepin-11-yl)amino)-N-(8-((2-(2,6-dioxopiperidin-3-yl)-1,3-dioxoisoindolin-4-yl)amino)octyl)pyrrolidine-1-carboxamide]
remaining binding at 10 µM [1]: 86%
remaining binding at 10 µM [2]: 97%
remaining binding at 10 µM [3]: 87%
remaining binding at 10 µM [4]: 100%
remaining binding at 10 µM [5]: 93%
remaining binding at 10 µM [6]: 96%
